Experiments:
HER2 = HER2 immunohistochemistry of MDA-MB-231 tumor sections from nude mice; format: in vivo, Balb/C Nude mice; conditions: mice with MDA-MB-231 tumors; APC1 350 μg per mouse, three times per week, two weeks; vs saline
Experimental: MDA-MB-231 cells were grown in DMEM medium with Hepes (Gibco 41965-039) containing 10% heat inactivated Fetal Bovine Serum (Biological industries, #04-121-1A) and 1% Pen-Strep antibiotic (Biological industries, 03-031-1B) inside a 175 cm^2 flask (Nunc 178883). The cells were incubated at 37° C. in the presence of 5% CO2 and 95% humidity. The other cancer cells injected into mice (namely OV90 and Panc1) were prepared in a similar manner.
When a sufficient number of cells were present, the cells were centrifuged at 300 g for 5 minutes. The supernatant was discarded and 5-10 ml PBS (Biological Industries, #02-023-5A) was added to the cell pellet in order to wash the remaining medium. The cells were centrifuged again (same speed and time), the supernatant was discarded and 5-10 ml Saline was added to the cells. At this stage the cells were counted under a light microscope using a Hemocytometer, and saline was accordingly added to reach a concentration of 8×10^6 cells/200 μl.
Female Balb/C Nude mice (as detailed above) were retained in the Inventor's animal facility for at least 24 hours. Next all mice were intraperitoneally injected with 8×10^6 cells (in 200 μl saline) using a 27 G needle.
APC1 peptide was diluted in saline to the appropriate concentration in order to inject a dose of 350 μg/mouse. After the tumors reached the size of 0.5 cm×0.5 cm (usually 5 days) treatment of mice began. […]

MDA-MB-468 cells = test: Analysis of apoptosis in MDA-MB-468 cells with APC1 and Herceptin; format: cell-based, human; conditions: Herceptin 12 μg/ml, APC1 250 μg/ml (FIG. 9)
From the text: Cells were examined for apoptosis or HER2 expression using FACS analysis. The HER2 antibody used was abcam ab16901. The marker Annexin (Enco) was used for assessment of apoptosis.

For “EKGAAFSPIYPRRK (C terminal peptide of KTPAF50) [APC1, polypeptide consisting of the 14 C-terminal amino acid residues of the peptide KTPAF50]”, the “HER2 expression on the cell surface of tumor cells (immunohistochemistry)” value (HER2) was “clear HER2 expression” and the level of apoptosis (MDA-MB-468 cells) was 15%.
